Results published in the supplement of paper PMC4862054.
Several values for one entry are separate records, joined by “and”; a condition that tells them apart may be missing. Equal values may be shown once.

Legend:
Assay in all cases: normalised viability (% of control), CellTiter-Blue; higher = more viable cells (about 100 = DMSO control)
Conditions in all cases: incubation time: 72 h
[1] = system: BT-474
In short: (§1)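 Seeded at 20 µl suspension per well onto compound-loaded 384-well plates, breast cancer cell lines were incubated 72 h. CellTiter-Blue fluorescence at 560/590 nm was then read, with each plate normalised to vehicle (100) and a positive kill control (0). Normalised viability is reported at a single listed concentration of the series.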

[2] = system: BT-549
In short: as §1

[3] = system: CAL-120
In short: as §1

[4] = system: CAL-148
In short: as §1

[5] = system: CAL-51
In short: as §1

[6] = system: CAL-85-1
In short: as §1

[7] = system: DU-4475
In short: as §1

[8] = system: HCC1143
In short: as §1

[9] = system: HCC1599
In short: as §1

[10] = system: HCC1937
In short: as §1

[11] = system: HDQ-P1
In short: as §1

[12] = system: Hs578T
In short: as §1

[13] = system: MDA-MB-231
In short: as §1

[14] = system: MDA-MB-436
In short: as §1

[15] = system: MDA-MB-453
In short: as §1

[16] = system: MFM-223
In short: as §1

[17] = system: SK-BR-3
In short: as §1

CC1(C)CNc2cc(NC(=O)c3cccnc3NCc3ccncc3)ccc21 [Motesanib]
normalised viability [%]
Conditions | 3 nM | 10 nM | 30 nM | 100 nM | 1000 nM | 10000 nM
[1] | – | 109 | – | – | 101 | 103
[2] | – | 79.1 | – | – | 93.5 | 79.2
[3] | – | 74.4 | – | – | 78.3 | 82.4
[4] | 94.8 | – | 83.7 | 90.7 | – | –
[5] | 109 | – | 110 | 97.2 | – | –
[6] | 83.1 | – | 80.9 | 85.3 | – | –
[7] | 85.6 | – | 79.6 | 83.9 | – | –
[8] | – | 79.9 | – | – | 82.4 | 70.4
[9] | – | 83.8 | – | – | 98.1 | 95.9
[10] | – | 104 | – | – | 91.5 | 88.5
[11] | 76.7 | – | 95.1 | 86.6 | – | –
[12] | – | 104 | – | – | 95.5 | 95.7
[13] | – | 69.8 | – | – | 77.3 | 72.8
[14] | – | 72.5 | – | – | 63 | 73
[15] | 96.1 | – | 71.3 | 69.6 | – | –
[16] | – | 80.8 | – | – | 76.4 | 83.2
[17] | – | 83.3 | – | – | 88.9 | 78.9

CC1=C2C[C@H]3[C@@H](CC=C4C[C@@H](O)CC[C@@]43C)[C@@H]2CC[C@]12O[C@@H]1C[C@H](C)CN[C@H]1[C@H]2C [Cyclopamine]
normalised viability [%]
Conditions | 3 nM | 10 nM | 30 nM | 100 nM | 1000 nM | 10000 nM
[1] | – | 135 | – | – | 114 | 132
[2] | – | 88.6 | – | – | 87.2 | 92
[3] | – | 98.1 | – | – | 98.4 | 97.3
[4] | 104 | – | 117 | 110 | – | –
[5] | 114 | – | 104 | 111 | – | –
[6] | 104 | – | 91.9 | 99.9 | – | –
[7] | 102 | – | 103 | 107 | – | –
[8] | – | 96 | – | – | 107 | 99.1
[9] | – | 108 | – | – | 112 | 100
[10] | – | 100 | – | – | 74 | 105
[11] | 89.1 | – | 106 | 114 | – | –
[12] | – | 127 | – | – | 102 | 105
[13] | – | 107 | – | – | 97.2 | 104
[14] | – | 110 | – | – | 80.5 | 114
[15] | 123 | – | 101 | 120 | – | –
[16] | – | 96 | – | – | 90.2 | 103
[17] | – | 103 | – | – | 123 | 103

Cc1sc2c(c1C)C(c1ccc(Cl)cc1)=N[C@@H](CC(=O)OC(C)(C)C)c1nnc(C)n1-2 [(+)JQ1]
normalised viability [%]
Conditions | 3 nM | 10 nM | 30 nM | 100 nM | 1000 nM | 10000 nM
[1] | – | 118 | – | – | 95.1 | 102
[2] | – | 108 | – | – | 53.8 | 36.9
[3] | – | 83.2 | – | – | 47.7 | 49.2
[4] | 95.7 | – | 103 | 97.3 | – | –
[5] | 100 | – | 96.9 | 104 | – | –
[6] | 93.2 | – | 82.6 | 80 | – | –
[7] | 104 | – | 77.6 | 90.1 | – | –
[8] | – | 91.1 | – | – | 67.6 | 58.7
[9] | – | 115 | – | – | 58 | 54.6
[10] | – | 109 | – | – | 62.9 | 55.9
[11] | 102 | – | 113 | 107 | – | –
[12] | – | 100 | – | – | 61.4 | 44.8
[13] | – | 107 | – | – | 32.8 | 35.9
[14] | – | 105 | – | – | 86.3 | 99.7
[15] | 111 | – | 107 | 84.5 | – | –
[16] | – | 99.3 | – | – | 54 | 45.4
[17] | – | 117 | – | – | 53.9 | 51.8

Cn1cnc2c(F)c(Nc3ccc(Br)cc3Cl)c(C(=O)NOCCO)cc21 [Selumetinib]
normalised viability [%]
Conditions | 3 nM | 10 nM | 30 nM | 100 nM | 1000 nM | 10000 nM
[1] | – | 104 | – | – | 105 | 104
[2] | – | 109 | – | – | 101 | 95.3
[3] | – | 78.8 | – | – | 78.6 | 63.3
[4] | 91 | – | 87.9 | 88.9 | – | –
[5] | 116 | – | 102 | 96.3 | – | –
[6] | 88.1 | – | 93.6 | 100 | – | –
[7] | 95.1 | – | 72.5 | 43.7 | – | –
[8] | – | 79.7 | – | – | 58.2 | 49.7
[9] | – | 112 | – | – | 78.3 | 76.3
[10] | – | 65.3 | – | – | 83.8 | 68.6
[11] | 92.4 | – | 107 | 92.6 | – | –
[12] | – | 90.8 | – | – | 89.8 | 76.2
[13] | – | 90.3 | – | – | 49.5 | 30
[14] | – | 113 | – | – | 59.8 | 101
[15] | 122 | – | 105 | 110 | – | –
[16] | – | 86.2 | – | – | 89.7 | 73.1
[17] | – | 98.7 | – | – | 114 | 93.6

CC(=O)O[C@@]12CO[C@@H]1C[C@H](O)[C@@]1(C)C(=O)[C@H](O)C3=C(C)[C@@H](OC(=O)[C@H](O)[C@@H](NC(=O)OC(C)(C)C)c4ccccc4)C[C@@](O)([C@@H](OC(=O)c4ccccc4)[C@H]21)C3(C)C [Docetaxel]
Conditions | normalised viability
[1], 1 nM | 91.6% and 101%
[1], 100 nM | 21.4% and 27.7%
[1], 1000 nM | 16.9% and 28.5%
[2], 1 nM | 64.5% and 58.7%
[2], 100 nM | 24.3% and 19%
[2], 1000 nM | 24.4% and 20.3%
[3], 1 nM | 84.9% and 81.7%
[3], 100 nM | 25% and 23.5%
[3], 1000 nM | 25.8% and 23.3%
[4], 0.3 nM | 97.3% and 89.1%
[4], 3 nM | 41.6% and 29.8%
[4], 10 nM | 21.9% and 19.9%
[5], 0.3 nM | 112% and 93.8%
[5], 3 nM | 67.8% and 60.9%
[5], 10 nM | 45.5% and 33.4%
[6], 0.3 nM | 96.7% and 101%
[6], 3 nM | 56% and 56.9%
[6], 10 nM | 36.1% and 35.2%
[7], 0.3 nM | 116% and 110%
[7], 3 nM | 50.8% and 35.1%
[7], 10 nM | 34.5% and 35.6%
[8], 1 nM | 79.8% and 66.2%
[8], 100 nM | 34.7% and 31.3%
[8], 1000 nM | 35.3% and 33%
[9], 1 nM | 134% and 119%
[9], 100 nM | 101% and 94.3%
[9], 1000 nM | 104% and 99.7%
[10], 1 nM | 53.9% and 76.2%
[10], 100 nM | 20.5% and 17.5%
[10], 1000 nM | 27.5% and 19%
[11], 0.3 nM | 86.7% and 84.7%
[11], 3 nM | 58.6% and 72.4%
[12], 1 nM | 69% and 63.9%
[12], 100 nM | 11.7% and 12.4%
[12], 1000 nM | 12.3% and 9.74%
[13], 1 nM | 83% and 72.7%
[13], 100 nM | 17% and 21.6%
[13], 1000 nM | 21.6% and 21%
[14], 1 nM | 85% and 80.1%
[14], 100 nM | 19.3% and 34%
[14], 1000 nM | 38.6% and 43.8%
[15], 0.3 nM | 121% and 107%
[15], 3 nM | 48.1% and 57.8%
[15], 10 nM | 39.6% and 31.9%
[16], 1 nM | 84.9% and 81.8%
[16], 100 nM | 43.6% and 47.1%
[16], 1000 nM | 47.8% and 41.5%
[17], 1 nM | 85.7% and 86.8%
[17], 100 nM | 19% and 14.4%
[17], 1000 nM | 18.3% and 14.1%
